Data from patent US11819533B2, “Compositions and methods for the treatment of fungal infections” (Cidara Therapeutics, Inc., priority 2017, dated 2023).
Starred links: 1 amine or outer side, 2 acyl side, 3 side chain; linkers in the order of their positions; H or OH if unused. Positions of bridges follow the written chain, without caps; N, C: chain ends. Non-standard residues stand in square brackets, D forms with d. Residues, ends and D or L forms follow the SMILES beside them. *: point of attachment. Orn(4R-OH,5R-OCH2CH2NMe3+) = C[N+](C)(C)CCO[C@@H](N[*:3])[C@H](O)C[C@H](N[*:1])C(=O)[*:2]; pTerphenylCO(4''-OnC5H11) = CCCCCOc1ccc(-c2ccc(-c3ccc(C(=O)*)cc3)cc2)cc1; hTyr(3S-OH,4S-OH) = N[C@H](C(=O)O)[C@H](O)[C@@H](O)c1ccc(O)cc1; Pro(3S-OH,4S-Me) = C[C@H]1CN[C@H](C(=O)O)[C@H]1O; Hyp = O=C(O)[C@@H]1C[C@@H](O)CN1

Experiments:
[1] = Dropwise addition of CD101 acetate 4 mg/mL solutions to 0.9% saline solution or PBS buffer, observed for drug insolubility; type: physicochemical
Method: CD101 acetate 20 mg/kg dose was prepared in w/w in 5% dextrose solution (CD101 acetate at 4 mg/mL solution) for the following solutions using the salt to free base correction factor of 0.8784 for CD101 acetate: […]
0.5% w/w Tween 80 used. The pH of the solution is 5.21 (22.8 mg CD101 acetate into 5 mL 5% Dextrose with 0.5% w/w Tween 80 (0.1 g Tween 80+19.9 g 5% Dextrose))
1.0% w/w Tween 80 used. The pH of the solutions is 5.27 (22.9 mg CD101 acetate into 5 mL 5% Dextrose with 1.0% w/w Tween 80 (0.2 g Tween 80+19.8 g 5% Dextrose))
2.5% w/w Tween 80 used. The pH of the solutions is 5.29 (22.7 mg CD101 acetate into 5 mL 5% Dextrose with 2.5% w/w Tween 80 (0.5 g Tween 80+[…] 5% Dextrose))
1.0% w/w Tween 80 used. The pH of the solution was adjusted to 6.64 using 0.1 N NaOH. (22.9 mg CD101 acetate into 5 mL 5% Dextrose with 1.0% w/w Tween 80 (0.2 g Tween 80+19.8 g 5% Dextrose))

[2] = PBS buffer drop test (Example 3); type: physicochemical
Method: These solutions were tested for solubility in the PBS drop test, which involved adding the solution dropwise into PBS solution (1:4.3 dilution) and visually observing the resulting solution for any precipitation. PBS buffer serves as a surrogate for plasma, and the PBS drop test is used to evaluate the potential for insolubility as the drug enters the bloodstream at the injection site.

[3] = PBS drop test of CD101 IV formulations (Example 4); type: physicochemical; conditions: 2 mg/mL in 0.50% Tween 80, 0.76% mannitol, 0.125% sodium lactate in 3.5% dextrose solution, pH ~5.5; 0.25 mL into 1 mL PBS
Method: Solubility of CD101-containing formulations with different percentages of Tween 80 (also referred to as polysorbate 80) was evaluated in a “PBS drop test.” This involved preparing a known concentration of CD101 in a formulation and injecting the formulation into PBS to visually examine for precipitation. This test was used to assess if a CD101-containing formulation would remain soluble in blood during IV infusions.
(1) 1.25% Tween 80, 5% mannitol, 0.3% glacial acetic acid, pH ˜4.5
(2) 0.50% Tween 80, 0.76% mannitol, 0.125% sodium lactate in 3.5% dextrose solution, pH ˜5.5
Different concentrations of CD101 acetate were prepared in vehicles (1) and (2) and tested for solubility in the PBS drop test.
Add dropwise the formulated solution into PBS solution (1:4 dilution). Visually observe the resulting solution upon addition for any precipitation.

Sprague Dawley rats = assay: 14-day repeat-dose intravenous infusion toxicity study; type: in vivo; conditions: for Animals that did not receive ten consecutive days of treatment (Days 5-14): females
Method: The primary purpose of this study was to evaluate the toxicity of CD101 when administered intravenously as a 20-minute infusion into the lateral tail vein of Sprague Dawley rats for fourteen consecutive days. A positive control group (Eraxis®) with a similar structure and pharmacodynamic activity was included in the study design.
The test article, CD101 acetate, was a white to off-white powder. The test article was prepared into dosing formulations for intravenous dose administration. One hundred experimentally naïve Sprague Dawley rats (50 males and 50 females), a minimum of 8 weeks old and weighing 255-318 grams (males) and 192-215 (females) at the outset of the study were assigned to treatment groups as shown in Table 7 below:
All animals were dosed on Days 1 through 3 inclusive. As a result of tail vein irritation observed among all study groups, dose administration was suspended on Day 4 to allow the tails to recover. Dosing resumed on Day 5 and continued for a maximum of ten additional days (Days 5 through 14 inclusive). Animals that could no longer be dosed during this time remained on study.
Male and female Sprague Dawley rats were to receive CD101 acetate at doses of 0, 2, 6 and 20 mg/kg/day (Groups 1, 3, 4 and 5, respectively) or Eraxis® (the positive control article, Group 2) at a dose of 40 mg/kg/day, intravenously as a 20 minute infusion into the left or right lateral tail vein for fourteen consecutive days. During the first three treatment days, all animals were dosed with the first vehicle used on this study (1.75% Tween 80/5% Dextrose: Groups 1 and 3-5; 5% Dextrose: Group 2). As a result of the localized tail swelling observed during the first three days of treatment, study Day 4 served as a drug-free day to alleviate tail vein irritation. Dose administration resumed on Day 5 using a new vehicle (5% Mannitol/2.5% Tween 80/0.3% acetic acid: Groups 1 and 3-5; 5% Mannitol/0.3% acetic acid: Group 2) for the remainder of the treatment period (Days 5-14). Those animals that could no longer be dosed because of severe vein irritation were retained on study, untreated, until the end of the study (Day 15).

[4] = Dropwise addition of CD101 acetate 4 mg/mL solutions to 0.9% saline solution or PBS buffer, observed for drug insolubility; type: physicochemical; conditions: 4 mg/mL in 5% dextrose and 0.5% Tween 80, pH 5.4
[5] = 4 mg/mL in 5% dextrose and 1.0% Tween 80, adjusted to 6.64 pH using 0.1N NaOH
[6] = 4 mg/mL in 5% dextrose and 1.0% Tween 80, pH 5.3
[7] = 4 mg/mL in 5% dextrose and 2.5% Tween 80, pH 5.3

CCCCCOc1ccc(-c2ccc(-c3ccc(C(=O)N[C@H]4C[C@@H](O)[C@@H](OCC[N+](C)(C)C)NC(=O)[C@@H]5[C@@H](O)[C@@H](C)CN5C(=O)[C@H]([C@@H](C)O)NC(=O)[C@H]([C@H](O)[C@@H](O)c5ccc(O)cc5)NC(=O)[C@@H]5C[C@@H](O)CN5C(=O)[C@H]([C@@H](C)O)NC4=O)cc3)cc2)cc1 [CD101 acetate] ({pTerphenylCO(4''-OnC5H11)}-[Orn(4R-OH,5R-OCH2CH2NMe3+)]T[Hyp][hTyr(3S-OH,4S-OH)]T[Pro(3S-OH,4S-Me)]; lactam 1-C)
Appearance after 1.5 mL added to (A) 5 mL 0.9% saline solution [1, 5]: Clear
Appearance after 1.5 mL added to (B) 5 mL PBS buffer [1, 5]: Clear
Appearance after 1.5 mL added to (A) 5 mL 0.9% saline solution [1, 6]: Clear
Appearance after 1.5 mL added to (B) 5 mL PBS buffer [1, 6]: Clear
Appearance after 1.5 mL added to (A) 5 mL 0.9% saline solution [1, 7]: Clear
Appearance after 1.5 mL added to (B) 5 mL PBS buffer [1, 7]: Clear
Appearance upon PBS drop test ([2]; 0.3% acetic acid, 1.25% Tween 80 and 5% mannitol, pH 4.5, 6.0 mg/mL, 1.4 mg/mL in PBS): Clear
Appearance upon PBS drop test ([2]; 0.3% acetic acid, 2.5% Tween 80 and 5% mannitol, pH 4.5, 4 mg/mL, 0.92 mg/mL in PBS): Clear
Appearance upon PBS drop test ([2]; 0.3% acetic acid, 2.5% Tween 80 and 5% mannitol, pH 4.5, 6.0 mg/mL, 1.4 mg/mL in PBS): Clear
Appearance upon PBS drop test ([2]; 0.3% acetic acid, 2.5% Tween 80 and 5% mannitol, pH 4.5, 8.0 mg/mL, 1.8 mg/mL in PBS): Clear
Appearance upon PBS drop test ([2]; 0.9% Saline, pH 5.3, 2.8% Tween 80, 4 mg/mL): Clear
Appearance upon PBS drop test ([2]; 0.9% Saline, pH 6.6, 2.5% Tween 80, 4 mg/mL): Clear
Appearance upon PBS drop test ([2]; 0.9% Saline, pH 7.2, 1.75% Tween 80, 4 mg/mL): Clear
Appearance upon PBS drop test ([2]; 0.9% Saline, pH 7.2, 2.5% Tween 80, 4 mg/mL): Clear
Appearance upon PBS drop test ([2]; 0.9% Saline, reverse addition (CD101 acetate and Tween 80 mixed first, then saline added), 1.75% Tween 80, 4 mg/mL): Clear
Appearance upon PBS drop test ([2]; 5% Mannitol/25 mM Na Acetate, pH 4.63, 2.5% Tween 80, 4 mg/mL): Clear
Appearance upon PBS drop test ([2]; 5% Mannitol/30 mM Na Lactate, pH 5.45, 2.5% Tween 80, 4 mg/mL): Clear
Appearance upon PBS drop test ([2]; 5% Mannitol/0.3% Acetic Acid, pH 3.54, 2.5% Tween 80, 4 mg/mL): Clear
Appearance upon PBS drop test ([2]; PBS buffer pH 7.4, pH 7.13, 1.75% Tween 80, 4 mg/mL): Clear
Time the formulated solution remained soluble in PBS [3]: at least 1 hour
Incidence of tail vein irritation (Sprague Dawley rats; Days 1-3, first vehicle (1.75% Tween 80 and 5% Dextrose for CD101 acetate; 5% Dextrose for Eraxis), Eraxis 40 mg/kg/day, CD101 acetate 6 and 20 mg/kg/day, males and females): highest
Vein irritation compared to Groups 1, 3 and 4 (Sprague Dawley rats; Days 5-14, second vehicle (5% Mannitol, 2.5% Tween 80, 0.3% Acetic Acid for CD101 acetate; 5% Mannitol and 0.3% Acetic Acid for Eraxis), Eraxis 40 mg/kg/day, CD101 acetate 20 mg/kg/day): only marginally higher
Animals that did not receive ten consecutive days of treatment (Days 5-14) (Sprague Dawley rats; high dose 20 mg/kg/day (Group 5), second vehicle 5% Mannitol/2.5% Tween 80/0.3% acetic acid): 90%
Animals that did not receive ten consecutive days of treatment (Days 5-14) (Sprague Dawley rats; low dose 2 mg/kg/day (Group 3), second vehicle 5% Mannitol/2.5% Tween 80/0.3% acetic acid): 10%
Animals that did not receive ten consecutive days of treatment (Days 5-14) (Sprague Dawley rats; mid-dose 6 mg/kg/day (Group 4), second vehicle 5% Mannitol/2.5% Tween 80/0.3% acetic acid): 10%
Animals dosed for less than the intended ten-day duration (Days 5-14) as a result of tail swelling/lesions (Sprague Dawley rats; males, high dose 20 mg/kg/day (Group 5), second vehicle 5% Mannitol/2.5% Tween 80/0.3% acetic acid): 30%
Appearance after 1.5 mL added to (A) 5 mL 0.9% saline solution [4]: clear
